Data taken from patent US6451336B2, “Method for increasing brown fat, comprising administering conjugated linoleic acid as active ingredient” (Rinoru Oil Mills Co., Ltd., priority 1999, dated 2002).

Columns and labels:
[1] = system: carnitine palmitoyltransferase (CPT); assay: Carnitine palmitoyltransferase (CPT) activity in brown adipose tissues of rats fed CLA; assay type: in vivo, Sprague-Dawley male rats; conditions: 1.0% CLA in diet, 4 weeks
Text: (§1) Sprague-Dawley male rats of four weeks of age were pre-bred, and then divided into two groups (each group consisting of 8 rats), a 1.0% linoleic acid group (a control group) and a 1.0% CLA group. The experimental diet shown in Table 1 and water were then freely fed to these two groups of rats. […] Four weeks after the initiation of feeding, the 8 rats constituting each group were sacrificed, and the organs were taken out.
Further, the activity of carnitine palmitoyltransferase (CPT) as a rate-determining enzyme in β-oxidation of fatty acids was measured in brown adipose tissues.

[2] = Feeding of 1.0% CLA diet to rats for four weeks: growth and weight of organs; assay type: in vivo, Sprague-Dawley male rats; conditions: 1.0% CLA in diet, 4 weeks
Text: as §1

Food intake, in words, compared with 1.0% linoleic acid control group [2]: without affecting
Weight of organs: Brain [2]: 0.38 g/100 g body weight
Weight of organs: Heart [2]: 0.36 g/100 g body weight
Weight of organs: Kidney [2]: 0.78 g/100 g body weight
Weight of organs: Liver [2]: 4.40 g/100 g body weight
Weight of organs: Lung [2]: 0.40 g/100 g body weight
Weight of organs: Spleen [2]: 0.22 g/100 g body weight
Weight of tissues of liver, kidney, heart, lungs, spleen and brain, in words, compared with control group [2]: no difference
Food intake ([2]; free feeding): 21.0 g/day
Substance: conjugated linoleic acid [CLA]
Activity of carnitine palmitoyltransferase (CPT) in brown adipose tissues, in words, compared with control group [1]: higher
Weight gain, in words, compared with 1.0% linoleic acid control group [2]: without affecting
Weight of adipose tissues around the kidney (white adipose tissues), in words, compared with control group [2]: significantly decreased
Weight of brown adipose tissues in the back, in words, compared with control group [2]: significantly increased
Weight of organs: Brown adipose tissue [2]: 0.21 g/100 g body weight
Weight of organs: Epididymal adipose tissue [2]: 1.17 g/100 g body weight
Weight gain ([2]; free feeding): 227 g/4 weeks
Weight of organs: Peri-renal adipose tissue ([2]; white adipose tissue): 1.16 g/100 g body weight
